Measured values taken from paper PMC2829555, “The zebrafish genome encodes the largest vertebrate repertoire of functional aquaporins with dual paralogy and substrate specificities similar to mammals” (BMC Evolutionary Biology, 2010).

Experiments:
Experiment in all cases: radiolabelled solute uptake in cRNA-injected oocytes
Format in all cases: cell-based
Details in all cases: MBS buffer, 1 mM solute, 10 min, room temperature; labelled compound
DrAqp3b = target: T1, DrAqp3b (Danio rerio, UniProt D3TI80)
T1 construct: gene aqp3b; full-length cDNA in pT7Ts, untagged, cRNA-injected Xenopus laevis oocytes
T1 sequence (D3TI80 1-299): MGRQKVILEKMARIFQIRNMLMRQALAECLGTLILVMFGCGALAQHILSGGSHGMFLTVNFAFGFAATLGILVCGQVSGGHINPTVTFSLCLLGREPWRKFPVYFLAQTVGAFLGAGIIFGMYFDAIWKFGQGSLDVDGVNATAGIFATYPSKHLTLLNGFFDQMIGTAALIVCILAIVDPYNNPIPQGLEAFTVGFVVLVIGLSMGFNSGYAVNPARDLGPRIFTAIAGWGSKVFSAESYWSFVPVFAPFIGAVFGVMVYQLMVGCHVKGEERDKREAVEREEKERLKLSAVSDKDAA

DrAqp3a = target: T2, DrAqp3a (Danio rerio, UniProt Q803U6)
T2 construct: gene aqp3a; full-length cDNA in pT7Ts, untagged, cRNA-injected Xenopus laevis oocytes
T2 sequence (Q803U6 1-296): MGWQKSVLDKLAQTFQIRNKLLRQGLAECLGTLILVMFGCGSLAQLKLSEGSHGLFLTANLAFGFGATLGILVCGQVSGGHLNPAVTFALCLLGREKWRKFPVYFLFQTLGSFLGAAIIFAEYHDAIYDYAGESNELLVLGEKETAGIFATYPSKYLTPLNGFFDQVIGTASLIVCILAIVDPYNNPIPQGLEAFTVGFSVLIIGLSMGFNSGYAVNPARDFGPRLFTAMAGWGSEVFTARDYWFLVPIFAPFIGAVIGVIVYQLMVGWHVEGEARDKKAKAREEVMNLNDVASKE

DrAqp7 = target: T3, DrAqp7 (Danio rerio, UniProt D3TZW4)
T3 construct: gene aqp7; full-length cDNA in pT7Ts, untagged, cRNA-injected Xenopus laevis oocytes
T3 sequence (D3TZW4 1-303): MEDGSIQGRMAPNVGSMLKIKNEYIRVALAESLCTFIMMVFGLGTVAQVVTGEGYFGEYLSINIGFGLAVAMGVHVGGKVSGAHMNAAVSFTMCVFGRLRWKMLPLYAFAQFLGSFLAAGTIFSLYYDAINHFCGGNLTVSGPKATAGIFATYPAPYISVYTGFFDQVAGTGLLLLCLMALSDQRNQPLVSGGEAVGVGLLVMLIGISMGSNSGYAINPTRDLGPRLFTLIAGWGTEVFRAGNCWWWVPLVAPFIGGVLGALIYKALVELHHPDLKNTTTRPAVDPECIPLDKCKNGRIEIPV

DrAqp9b = target: T4, DrAqp9b (Danio rerio, UniProt D5FFZ1)
T4 construct: gene aqp9b; full-length cDNA in pT7Ts, untagged, cRNA-injected Xenopus laevis oocytes; FJ655387 is printed for both 9a and 9b
T4 sequence (D5FFZ1 1-291): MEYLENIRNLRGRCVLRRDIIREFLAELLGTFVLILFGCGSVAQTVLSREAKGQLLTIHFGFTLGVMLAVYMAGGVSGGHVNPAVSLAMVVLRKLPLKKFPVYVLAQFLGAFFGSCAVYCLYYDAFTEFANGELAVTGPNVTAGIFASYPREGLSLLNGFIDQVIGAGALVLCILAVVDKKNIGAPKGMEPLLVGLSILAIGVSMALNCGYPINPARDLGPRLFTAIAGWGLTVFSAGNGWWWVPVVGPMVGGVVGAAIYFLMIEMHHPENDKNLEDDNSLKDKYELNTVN

DrAqp10a = target: T5, DrAqp10a (Danio rerio, UniProt A0A8M1N0C8)
T5 construct: gene aqp10a; full-length cDNA in pT7Ts, untagged, cRNA-injected Xenopus laevis oocytes
T5 sequence (A0A8M1N0C8 1-293): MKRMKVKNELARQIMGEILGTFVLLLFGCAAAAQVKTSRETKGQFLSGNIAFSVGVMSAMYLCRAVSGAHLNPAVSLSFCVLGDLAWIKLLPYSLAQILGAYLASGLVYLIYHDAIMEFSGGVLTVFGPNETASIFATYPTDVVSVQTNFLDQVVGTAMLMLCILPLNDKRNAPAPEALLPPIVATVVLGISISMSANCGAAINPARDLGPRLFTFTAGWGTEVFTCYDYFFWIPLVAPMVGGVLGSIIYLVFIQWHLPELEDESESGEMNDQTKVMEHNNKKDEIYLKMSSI

DrAqp10b = target: T6, DrAqp10b (Danio rerio, UniProt Q1L8T0)
T6 construct: gene aqp10b; full-length cDNA in pT7Ts, untagged, cRNA-injected Xenopus laevis oocytes
T6 sequence (Q1L8T0 1-276): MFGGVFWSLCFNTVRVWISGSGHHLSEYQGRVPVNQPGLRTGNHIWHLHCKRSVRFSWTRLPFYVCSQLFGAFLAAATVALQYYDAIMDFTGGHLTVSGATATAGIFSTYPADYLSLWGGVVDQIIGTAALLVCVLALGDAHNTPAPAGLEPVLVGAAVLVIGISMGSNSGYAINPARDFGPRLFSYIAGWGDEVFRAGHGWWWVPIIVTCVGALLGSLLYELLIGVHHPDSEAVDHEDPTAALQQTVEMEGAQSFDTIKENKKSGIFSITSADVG

DrAqp9a = target: T7, DrAqp9a (Danio rerio, UniProt Q498W2)
T7 construct: gene aqp9a; full-length cDNA in pT7Ts, untagged, cRNA-injected Xenopus laevis oocytes
T7 sequence (Q498W2 1-294): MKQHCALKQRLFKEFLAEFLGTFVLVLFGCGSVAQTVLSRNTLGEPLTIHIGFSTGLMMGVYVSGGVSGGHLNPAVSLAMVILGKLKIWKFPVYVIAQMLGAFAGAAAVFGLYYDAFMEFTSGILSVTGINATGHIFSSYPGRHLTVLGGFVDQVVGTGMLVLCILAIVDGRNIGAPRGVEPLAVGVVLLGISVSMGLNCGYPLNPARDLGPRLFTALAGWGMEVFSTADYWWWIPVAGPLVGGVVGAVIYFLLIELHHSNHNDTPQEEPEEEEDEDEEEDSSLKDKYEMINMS

DrAqp8aa = target: T8, DrAqp8aa (Danio rerio, UniProt Q66I64)
T8 construct: gene aqp8a.1; full-length cDNA in pT7Ts, untagged, cRNA-injected Xenopus laevis oocytes
T8 sequence (Q66I64 1-260): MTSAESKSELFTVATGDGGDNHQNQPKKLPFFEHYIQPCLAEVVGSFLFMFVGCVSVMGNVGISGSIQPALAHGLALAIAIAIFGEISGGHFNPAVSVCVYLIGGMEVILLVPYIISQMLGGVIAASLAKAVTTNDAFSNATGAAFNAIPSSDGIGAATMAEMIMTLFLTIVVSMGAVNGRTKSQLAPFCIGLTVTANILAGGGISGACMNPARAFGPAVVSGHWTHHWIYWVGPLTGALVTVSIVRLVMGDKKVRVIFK

DrAqp8ab = target: T9, DrAqp8ab (Danio rerio, UniProt A0A8N1TQ94)
T9 construct: gene aqp8a.2; full-length cDNA in pT7Ts, untagged, cRNA-injected Xenopus laevis oocytes
T9 sequence (A0A8N1TQ94 1-257): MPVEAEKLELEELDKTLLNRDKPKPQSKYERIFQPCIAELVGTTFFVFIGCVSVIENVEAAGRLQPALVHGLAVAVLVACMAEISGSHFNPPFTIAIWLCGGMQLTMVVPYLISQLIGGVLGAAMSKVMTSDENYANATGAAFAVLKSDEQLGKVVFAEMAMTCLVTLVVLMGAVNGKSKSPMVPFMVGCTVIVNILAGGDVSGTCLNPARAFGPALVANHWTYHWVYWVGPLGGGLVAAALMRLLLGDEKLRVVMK

SMILES	radiolabelled solute uptake in cRNA-injected oocytes (DrAqp3b)	radiolabelled solute uptake in cRNA-injected oocytes (DrAqp3a)	radiolabelled solute uptake in cRNA-injected oocytes (DrAqp7)	radiolabelled solute uptake in cRNA-injected oocytes (DrAqp9b)	radiolabelled solute uptake in cRNA-injected oocytes (DrAqp10a)	radiolabelled solute uptake in cRNA-injected oocytes (DrAqp10b)	radiolabelled solute uptake in cRNA-injected oocytes (DrAqp9a)	radiolabelled solute uptake in cRNA-injected oocytes (DrAqp8aa)	radiolabelled solute uptake in cRNA-injected oocytes (DrAqp8ab)
OCC(O)CO [glycerol]	draqp3a, -3b, -7, -9a, -9b, -10a and -10b were also permeable to glycerol and urea	draqp3a, -3b, -7, -9a, -9b, -10a and -10b were also permeable to glycerol and urea	draqp3a, -3b, -7, -9a, -9b, -10a and -10b were also permeable to glycerol and urea	draqp3a, -3b, -7, -9a, -9b, -10a and -10b were also permeable to glycerol and urea	draqp3a, -3b, -7, -9a, -9b, -10a and -10b were also permeable to glycerol and urea	draqp3a, -3b, -7, -9a, -9b, -10a and -10b were also permeable to glycerol and urea	draqp3a, -3b, -7, -9a, -9b, -10a and -10b were also permeable to glycerol and urea		
NC(N)=O [urea]	draqp3a, -3b, -7, -9a, -9b, -10a and -10b were also permeable to glycerol and urea	draqp3a, -3b, -7, -9a, -9b, -10a and -10b were also permeable to glycerol and urea	draqp3a, -3b, -7, -9a, -9b, -10a and -10b were also permeable to glycerol and urea	draqp3a, -3b, -7, -9a, -9b, -10a and -10b were also permeable to glycerol and urea	draqp3a, -3b, -7, -9a, -9b, -10a and -10b were also permeable to glycerol and urea	in the case of draqp10b urea permeability was low	draqp3a, -3b, -7, -9a, -9b, -10a and -10b were also permeable to glycerol and urea	Oocytes expressing draqp8aa or -8ab were permeable to water and urea, but not glycerol	Oocytes expressing draqp8aa or -8ab were permeable to water and urea, but not glycerol
